Molecules are shown by their SMILES. “Also recorded” adds a separate entry of the source.

Series [1] relates to WRL-68. The series is described as follows: Cell proliferation after BA treatment, WRL-68. It is filed as cell-based, human. The note with it: BA treatment 14 days in high glucose (27.5 mM) and oleic acid (0.3 mM). As to the method:
(§1) Normal human hepatic cell lines WRL-68 and THLE-2 were purchased from Sigma. For BA treatment, cells were harvested, rinsed twice in PBS, resuspended in sugar-free DMEM (Life Technologies) supplemented with 10% charcoal-stripped FBS and seeded into 6-well plate at a density of 5×10^4/well. […] After 14 days treatment, normal medium (DMEM-F12 containing 10% FBS) were added into each well to replace the spent media. Cell proliferation and anchorage-independent growth assays were performed in the normal medium. Additionally, western blot assay was performed to analyze the alteration of oncoprotein c-myc expression.

A further series concerns THLE-2. Put plainly: Cell proliferation after BA treatment, THLE-2. The note with it: BA treatment 14 days in high glucose (27.5 mM) and oleic acid (0.3 mM). Type of series: cell-based, human. As to the method: as §1
A further series has as its system HepG2. Put plainly: Cell proliferation after BA treatment, HepG2. It is filed as cell-based, human. As to conditions: BA treatment 14 days, 100 μM. As to the method:
(§2) Human cancer cell line, HepG2, was purchased from Sigma and maintained in DMEM-F12 (Life Technologies) supplemented with 10% fetal bovine serum (FBS, Life Technologies). For BA treatment, cells were harvested, rinsed twice with PBS, seeded in sugar-free DMEM (Life Technologies) supplemented with 10% charcoal-stripped FBS and 6 mM glucose. […] The spent media was replaced by fresh normal medium (DMEM-F12 containing 10% FBS) 14 days later. And then cells were used for cell proliferation assay and western blot analysis for the tumor suppressor protein CEBPa.

The subject of the next series is c-myc. Put plainly: Western blot of oncoprotein c-myc in WRL-68 cells. It is filed as cell-based, human. As to the method: as §1, with “5×10^4/well. We set the glucose (Glc, Sigma) at 27.5 mM and Oleic acid (OA, Sigma) at 0.3 mM to mimic high glucose and fat conditions in vitro.” for “5×10^4/well.”
(§3) Primary antibodies for c-myc (Santa Cruz), CEBPa (Santa Cruz) and Actin (Li-cor) were purchased and used with a diluted concentration as indicated by the manufacturers.

Another series deals with CEBPα. The series is described as follows: Western blot of tumor suppressor protein CEBPα in HepG2 cells. It is filed as cell-based, human. As to the method:
as §2, §3

A short description of series [2]: Male mice treated with STZ alone. Type of series: in vivo. As to conditions: male mice treated with STZ alone for 20 weeks.
Series [3] concerns WRL-68. The series is described as follows: Anchorage-independent growth assay, WRL-68. The note with it: BA treatment under high glucose and high fat condition. Type of series: cell-based, human. How it is done:
as §1, with “5×10^4/well. We set the glucose (Glc, Sigma) at 27.5 mM and Oleic acid (OA, Sigma) at 0.3 mM to mimic high glucose and fat conditions in vitro.” for “5×10^4/well.”

Regarding `C[C@H](CCC(=O)NCCS(=O)(=O)O)[C@H]1CC[C@H]2[C@@H]3[C@H](O)C[C@@H]4C[C@H](O)CC[C@]4(C)[C@H]3C[C@H](O)[C@]12C` [TCA, taurocholic acid], in the series on WRL-68 [1], the WRL-68 proliferation result was “very little influence”.

On to `C[C@H](CCC(=O)O)[C@H]1CC[C@H]2[C@@H]3[C@H](O)C[C@@H]4C[C@H](O)CC[C@]4(C)[C@H]3C[C@H](O)[C@]12C` [CA, cholic acid], for which, in the series on WRL-68 [1], the WRL-68 proliferation entry is “significantly promoted”. The THLE-2 proliferation result in the series on THLE-2 is reported as “significantly promoted”. Also, the HepG2 cell proliferation result in the series on HepG2 was “significantly promoted”.

In the case of `C[C@H](CCC(=O)NCCS(=O)(=O)O)[C@H]1CC[C@H]2[C@@H]3[C@H](O)C[C@@H]4C[C@H](O)CC[C@]4(C)[C@H]3CC[C@]12C` [TCDCA, taurochenodeoxycholic acid], in the series on WRL-68 [1], the WRL-68 proliferation result is listed as “significantly promoted”. Moreover, the THLE-2 proliferation entry in the series on THLE-2 is reported as “significantly promoted”. Further, in the series with HepG2, the HepG2 cell proliferation result was “significantly promoted; also recorded: markedly increased”. Also, in the series with c-myc, the “expression of oncoprotein c-myc” value is “increased”. In addition, the “expression of tumor suppressor gene CEBPα” value in the series with CEBPα is given as “reduced”.

`CN(N=O)C(=O)N[C@H]1C(O)O[C@H](CO)[C@@H](O)[C@@H]1O` (mixture of isomers) [STZ, streptozotocin]: the HCC formation entry in series [2] is recorded as “no HCC was observed”.

For `C[C@H](CCC(=O)O)[C@H]1CC[C@H]2[C@@H]3CC[C@@H]4C[C@H](O)CC[C@]4(C)[C@H]3C[C@H](O)[C@]12C` [DCA, deoxycholic acid], the WRL-68 proliferation entry in the series with WRL-68 [1] is reported as “significantly promoted”. For the same molecule, the THLE-2 proliferation entry in the series on THLE-2 is given as “significantly promoted”. In addition, the HepG2 cell proliferation result with HepG2 was “significantly promoted”. Further, in the series on WRL-68 [3], the “anchorage-independent growth of WRL-68 compared to those treated with high glucose and high fat” value is reported as “significantly increased”; the “anchorage-independent growth of WRL-68 compared with parental cells” value was “didn't enhance”. In addition, in the series with c-myc, the “expression of oncoprotein c-myc” value is on record as “increased”.

Take `CC(CCC(=O)NCC(=O)O)C1CCC2C3C(O)CC4CC(O)CCC4(C)C3CCC12C` (centres unmarked) [GCDCA, glycochenodeoxycholic acid]: in the series with WRL-68 [1], the WRL-68 proliferation entry was “very little influence”.

Source of the values: patent publication US12038445B2, “Liver disease-related biomarkers and methods of use thereof” (Human Metabolomics Institute, Inc., priority 2016, dated 2024).
